Laboratory results from patent publication US20260092246A1, “PLATFORM FOR ANTIMICROBIAL SUSCEPTIBILITY TESTING AND BACTERIAL IDENTIFICATION” (ASTRADX, INC., priority 2022, published 2026).
Read-outs that look alike come from different tables or passages of the source.

Tested on: E. coli
Test: Antimicrobial susceptibility testing by dilution-temporal modeling (DTM) of growth in microwell plates with doubling dilutions of antibiotic
Assay type: cell-based
Settings: Escherichia coli
Text: “Categorical agreement” is a term of art in AST that describes whether an organism is susceptible or resistant by each of two methods, typically a reference method and an investigative method. The reference method is broth microdilution and comes from the CLSI (M100).
Each experiment involved a standard inoculum of bacteria grown at a concentration similar to what was recovered from the growth-detection step, which began with whole blood. The inoculum was automatically dispensed into the wells of a microwell plate. The wells contained doubling dilutions of standard antibiotics such as cefepime, meropenem, ciprofloxacin, and gentamicin (for gram-negative bacteria). A large number of wells enabled multiple replicates per condition, providing robustness to random dropouts or to growth variation.
In each experiment, the growth and color of each well was monitored for growth by an automated imager. Serial images for each “bug-drug” combination were combined to create a unified picture of bacterial growth for each antibiotic, measure MICs, and determine any correction factors necessary to maximize S/I/R categorical agreement with reference MICs. […]

| MIC (cefepime-resistant strain of E. coli, FIG. 6B, within a single doubling dilution of reference-method MIC, read-out: MIC by the disclosed method (concentration at which growth falls off)) [µg/mL] | Structure (SMILES) | MIC (read-out: MIC by the disclosed method (concentration at which fall in growth is visible)) [µg/mL] |
| --- | --- | --- |
| – | C[C@@H](O)[C@H]1C(=O)N2C(C(=O)O)=C(S[C@@H]3CN[C@H](C(=O)N(C)C)C3)[C@H](C)[C@H]12 [meropenem] | 0.5 |
| 16 | CO/N=C(\C(=O)N[C@@H]1C(=O)N2C(C(=O)[O-])=C(C[N+]3(C)CCCC3)CS[C@H]12)c1csc(N)n1 [cefepime] | – |
